Laboratory results published in paper PMC8811960, “A Novel 2-Carbon-Linked Dimeric Artemisinin With Potent Antileukemic Activity and Favorable Pharmacology” (Frontiers in Oncology, 2022).
Read-outs that look alike come from different tables or passages of the source.

Legend:
HL60 = test: alamarBlue growth inhibition, HL60; type: cell-based; conditions: Homo sapiens, HL-60, HL60, 48h, mean of 2 independent assays ± SD
Procedure: (§1) Cytotoxicity was assessed using alamarBlue assays (Life Technologies, Grand Island, NY) following manufacturer’s guidelines. Cell death was verified by Annexin V/7-aminoactinomycin D (7AAD) staining (BioLegend, San Diego, CA) per manufacturer’s guidelines.

MOLM14 = test: alamarBlue growth inhibition, MOLM14; type: cell-based; conditions: Homo sapiens, MOLM-14; MOLM14, 48h, alamarBlue, mean of 2 independent assays ± SD; read-out: IC50
Procedure: as §1
In this experiment, provided to show the entire concentration:response range, MOLM14 AML cells were cultured with a range of concentrations of artesunate (AS), ART838, ART631, and ART576 for 48h. Graph indicates growth inhibition relative to vehicle (DMSO)-treated controls by alamarBlue absorbance assays. Data points and error bars represent mean and SD of 3 independent experiments done in triplicate.

TF1 = test: alamarBlue growth inhibition, TF1; type: cell-based; conditions: Homo sapiens, TF-1, TF1, 48h, mean of 2 independent assays ± SD
Procedure: as §1

THP1 = test: alamarBlue growth inhibition, THP1; type: cell-based; conditions: Homo sapiens, THP-1, THP1, 48h, mean of 2 independent assays ± SD
Procedure: as §1

U937 = test: alamarBlue growth inhibition, U937; type: cell-based; conditions: Homo sapiens, U-937, U937, 48h, mean of 2 independent assays ± SD
Procedure: as §1

[1] = Stability in mouse plasma (EDTA); type: in vitro ADME; conditions: 10 µM, 37°C, 1h
Procedure: The metabolic stability of ART631 was assessed in human and mouse plasma and liver microsomes (LM). For phase I microsomal stability assays, analogs (10 µM in <1% acetonitrile) were incubated in PBS containing liver microsomes, with or without cofactors ([22]). Microsomal controls (without cofactors) were used to determine non-enzymatic degradation. All experiments were incubated at 37°C for 1h and performed in duplicate. Reactions were stopped with acetonitrile and analyzed as described below.
ART631 was extracted from 25 µL plasma or microsomal solutions with 100 µL acetonitrile containing artemisinin (i.e. the natural product) as internal standard. […] Mobile phase A was ammonium acetate (2mM) containing 0.1% formic acid, and mobile phase B was acetonitrile containing 0.1% formic acid. The gradient started with mobile phase B and was held at 40% for 0.5 minutes with a flow rate of 0.4 mL/min, then increased to 100% over 1.5 minutes and held for 2.0 minutes, and finally returned back to 40% mobile phase B and allowed to equilibrate for 2.0 minutes. An AB Sciex 5500 triple quadrupole mass spectrometer operated in positive electrospray ionization mode was used for the detection of ART631. For stability studies, the ratio of ART631 to the internal standard, artemisinin, was assessed. […]

[2] = Plasma pharmacokinetics after oral dosing in NRG mice; type: in vivo; conditions: mouse; for Vd/F: read-out: Vz/F
Procedure: Mice were dosed orally with ART631 at empirically determined maximally tolerated doses (MTDs) of 75 mg/kg ART631 as a single dose alone or 15 mg/kg as a multiple dose regimen (once daily x5), either alone or in combination with SOR (30 mg/kg/d) and VEN (150 mg/kg/d), for side-by-side comparison to the ART838, SOR and VEN combination evaluated previously ([20]). ART631, SOR, and VEN were mixed in vehicle and given as a single administration. Mice (n = 3/time point) were euthanized at 0.5, 1, 1.5, 2, 3, 4, 6, 8 and 12 h after dosing. ART631 was quantified in plasma as described below. Pharmacokinetic parameters were calculated from mean concentration-time data using non-compartmental methods in Phoenix WinNonlin version 8.3 (Certara, Princeton, NJ). The maximum plasma concentration (Cmax) and time to Cmax (Tmax) were the observed values. The AUClast was calculated using the log-linear trapezoidal method. AUC was extrapolated to infinity (AUCINF) by dividing the last quantifiable concentration by the terminal disposition rate constant (λz). The λz was determined from at least 3 points on the slope of the terminal phase of the concentration-time profile. The terminal half-life (T1/2) was determined by dividing 0.693 by λz. Apparent clearance (Cl/F) was calculated by dividing the dose administered by AUCINF. Apparent volume of distribution (V/F) was calculated by dividing Cl/F by λz. If the percent AUC extrapolated was >20% or the r^2 of λz was <0.85, the AUCINF, Cl/F, T1/2 and V/F were not reported.
The Method of Bailer was used to estimate the variance of AUC given the calculated variance of the mean concentration at each time point ([23]). A pairwise comparison utilizing Z test was used to determine whether there was a significant difference between ART631 exposures as expressed by AUClast ([24]). In all cases, p < 0.05 was considered statistically significant.
ART631 was extracted from 25 µL plasma or microsomal solutions with 100 µL acetonitrile containing artemisinin (i.e. the natural product) as internal standard. […] Mobile phase A was ammonium acetate (2mM) containing 0.1% formic acid, and mobile phase B was acetonitrile containing 0.1% formic acid. The gradient started with mobile phase B and was held at 40% for 0.5 minutes with a flow rate of 0.4 mL/min, then increased to 100% over 1.5 minutes and held for 2.0 minutes, and finally returned back to 40% mobile phase B and allowed to equilibrate for 2.0 minutes. An AB Sciex 5500 triple quadrupole mass spectrometer operated in positive electrospray ionization mode was used for the detection of ART631. For stability studies, the ratio of ART631 to the internal standard, artemisinin, was assessed. Calibration curves for ART631 were computed using the ratio of the peak area to that of the internal standard by using a quadratic equation with a 1/x^2 weighting function over the range of 8-1585 nM with dilutions of up to 1:10 (v/v).

MOLM14 cells = test: Total cellular ROS (CM-H2DCFDA flow cytometry); type: cell-based, human; conditions: MOLM14, 200 nM, 18h
Procedure: […] Cells were then treated with ART631 (200 nM) or DMSO control for 18h, with subsequent analysis by flow cytometry. Western blotting and quantitative reverse transcription PCR (qRT-PCR) to assess for molecular markers of ROS-mediated apoptosis were performed as previously described ([20]).
Figure 4 ART631 elevated ROS and CHOP levels and reduced MCL1 expression in MOLM14 AML cells. […] They were then analyzed by flow cytometry. Graph represents %CM-H2DCFDA fluorescence compared to vehicle (DMSO) control treated cells. Error bars represent SD from 3 independent experiments. (B) MOLM14 AML cells were treated for 18h with vehicle, AS (10 uM), ART838 (200 nM), ART631 (200 nM), cytarabine (AraC; 150 nM), or SOR (5 uM). Protein was isolated and western blotted for MCL1, BCL2, CHOP, and β-actin. (C) MOLM14 cells were treated as in (B) for 18h, total RNA isolated, cDNA synthesized, and SYBR Green qRT-PCR performed in triplicates. Ct values were normalized to housekeeping gene GAPDH and fold change shown relative to vehicle (DMSO) control. Error bars represent SD from 3 independent experiments done in triplicate.

[3] = 15 mg/kg/day, NRG mice plasma, 15 mg/kg/d PO qd x 5 alone, after 5th dose
[4] = NRG mice plasma, 15 mg/kg/d PO qd x 5 in SAV (SOR 30 mg/kg/d, VEN 150 mg/kg/d), after 5th dose
[5] = NRG mice plasma, 75 mg/kg PO x 1

For `C=CCO/N=C(/C[C@H]1O[C@@H]2O[C@@]3(C)CC[C@H]4[C@H](C)CC[C@@H]([C@H]1C)[C@@]24OO3)[C@H]1O[C@@H]2O[C@@]3(C)CC[C@H]4[C@H](C)CC[C@@H]([C@H]1C)[C@@]24OO3` [ART631], the IC50 (HL60) was 41 ± 9 nM, the IC50 (MOLM14) was 32 ± 4 nM and the IC50 (TF1) was 27 ± 2 nM. The IC50 (THP1) was 42 ± 2 nM, the IC50 (U937) was 20 ± 5 nM and the “percentage remaining, Plasma (EDTA) Mouse” value [1] was 62%. It also gave a half-life ([2]; NRG, plasma, oral, ART631 alone, single and multiple dose regimens, read-out: half-life) of 1.1 to 1.7 h, an AUC(0-t) [2, 3] of 2.74 µM·h and a CL/F [2, 3] of 145 mL/min/kg. The Cmax [2, 3] was 935 nM, the Tmax [2, 3] was 2 h and the half-life ([2]; 15 mg/kg/day, NRG mice plasma, 15 mg/kg/d PO qd x 5 alone, after 5th dose, read-out: T1/2 (converted)) was 1.7 h. The Vd/F [2, 3] was 21.5 L/kg, the AUC(0-t) [2, 4] was 3.73 µM·h and the CL/F [2, 4] was 102 mL/min/kg. The Cmax [2, 4] was 719 nM, the Tmax [2, 4] was 2 h and the half-life ([2]; NRG mice plasma, 15 mg/kg/d PO qd x 5 in SAV (SOR 30 mg/kg/d, VEN 150 mg/kg/d), after 5th dose, read-out: T1/2 (converted)) was 2.4 h. The Vd/F [2, 4] was 21.3 L/kg, the AUC(0-t) [2, 5] was 22.9 µM·h and the CL/F [2, 5] was 86.7 mL/min/kg. For the same molecule, the Cmax [2, 5] was 13100 nM, the Tmax [2, 5] was 1.5 h and the half-life ([2]; NRG mice plasma, 75 mg/kg PO x 1, read-out: T1/2 (converted)) was 1.1 h. For the same molecule, the Vd/F [2, 5] was 8.4 L/kg and the “total cellular ROS levels” value (MOLM14 cells) was “substantially increased”.
